According to article PMC2464581, “Pichia stipitis xylose reductase helps detoxifying lignocellulosic hydrolysate by reducing 5-hydroxymethyl-furfural (HMF)” (Biotechnology for Biofuels, 2008):

T1: Pichia stipitis xylose reductase (Ps-XR) (Scheffersomyces stipitis, UniProt P31867)
T1 construct: gene XYL1; XYL1 gene product overproduced in S. cerevisiae TMB3260 (PGK1p-XYL1); purified by Red-Sepharose and gel filtration; no tag mentioned
T1 sequence (P31867 1-318): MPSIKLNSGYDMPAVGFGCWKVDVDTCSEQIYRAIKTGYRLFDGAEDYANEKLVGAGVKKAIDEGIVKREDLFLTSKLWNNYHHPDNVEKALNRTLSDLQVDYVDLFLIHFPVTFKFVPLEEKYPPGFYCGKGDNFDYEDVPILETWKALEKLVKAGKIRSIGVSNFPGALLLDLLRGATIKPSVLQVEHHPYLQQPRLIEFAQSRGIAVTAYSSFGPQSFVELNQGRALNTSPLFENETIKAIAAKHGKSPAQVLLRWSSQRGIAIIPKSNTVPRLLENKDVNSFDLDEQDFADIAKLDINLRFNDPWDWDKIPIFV

B1: Pichia stipitis xylose reductase (Ps-XR) (Scheffersomyces stipitis CBS 6054) (protein)
chain: T1 sequence (P31867 1-318)
notes: XYL1 gene product overproduced in S. cerevisiae TMB3260 (PGK1p-XYL1); purified by Red-Sepharose and gel filtration; no tag mentioned

What was measured:
[1] = target: T1, Pichia stipitis xylose reductase (Ps-XR); assay: NADPH oxidation at […] nm, non-linear regression, substrate-inhibition model with Hill coefficient; type: biochemical; conditions: NADPH as cofactor, Hill coefficient n = 3.51, 100 mM phosphate pH 7.0, 30 °C, unit of Ki not printed (Km in mM)
purified protein = substrate: O=Cc1ccc(CO)o1; assay: purified protein; type: biochemical, Scheffersomyces stipitis; conditions: NADPH as cofactor, substrate-inhibition model, 100 mM phosphate pH 7.0, 30 °C

Row | Molecule | Ki [1] | Km (purified protein)
1 | O=Cc1ccc(CO)o1 [HMF] | 95.0 | 
2 | B1 |  | 40 mM
